What all share (type): biochemical
For one experiment, the target named is CDK4/D1 (Homo sapiens, UniProt P11802). The experiment in a line: ADP Glo Kinase assay CDK4/D1. As to conditions: CDK4D1; compound at 10 μM; read-out: residual activity (%) at 10 μM CDK4D1. On the procedure: (§1) Eurofins Pharma Discovery or Reaction Biology Corporation Kinase Profiler services were used to measure inhibition of CDKs and other kinases by radiometric assay. Inhibition of CDK4/D1, CDK6/D3 and CDK9/T1 were also determined in-house using ADP Glo Kinase assays (Promega Corporation, Madison, USA). Briefly, the kinase reaction for CDK4/D1 and CDK6/D3 was performed with kinase reaction buffer ([…] Tris base pH 7.5, 20 mM MgCl2, 0.4 mM DTT), 0.1 mg/ml BSA and RB-CTF substrate (retinoblastoma protein 1 C-terminal fraction). For CDK9/CyclinT1, the kinase reaction was performed with standard assay buffer and Kinase Dilution Buffer and RBER-IRStide substrate. Serial dilutions of 1:3 were prepared for test compounds for 10 concentrations (from 10 μM to 0.5 nM). The kinase reactions were started by addition of ATP, incubated for 40 min at 37° C. and then stopped by adding 10 μL of ADP Glo reagent. After incubation at room temperature in the dark for 40 min, 20 μL of kinase detection reagent was added per well and incubated for 40 min. Luminescence was measured using an EnVision Multilabel plate reader (PerkinElmer, Buckinghamshire, UK). Positive and negative controls were performed in the presence and absence of CDK kinases, respectively. Half-maximal inhibition (IC50) values were calculated using a 4-parameter logistic non-linear regression model with Graphpad prism (Version 6.0). Apparent inhibition constants (Ki) values were calculated from Km (ATP) and IC50 values for the respective kinases.
(In ADP-Glo the light output rises with the ADP produced.)

Experiment [1] has as its target T1, CDKs and other kinases (Homo sapiens, UniProt P06493).
T1 construct: other: CDK1B; residual activity (%) at 10 μM CDK1B; compound at 10 μM
Briefly: Radiometric kinase assay (Eurofins Pharma Discovery or Reaction Biology Corporation Kinase Profiler). To be noted: CDK1B; for Ki: read-out: CDK inhibition, Ki (μM) CDK1B; for remaining activity at 10 µM: compound at 10 μM, read-out: residual activity (%) at 10 μM CDK1B. Here is the method:
as §1

Experiment [2] deals with T2, CDKs and other kinases (Homo sapiens, UniProt P24941).
T2 construct: other: CDK2A; residual activity (%) at 10 μM CDK2A; compound at 10 μM
The experiment is described as above. To be noted: CDK2A; for Ki: read-out: CDK inhibition, Ki (μM) CDK2A; for remaining activity at 10 µM: compound at 10 μM, read-out: residual activity (%) at 10 μM CDK2A. On the procedure: as §1

Experiment [3] deals with T3, CDKs and other kinases (Homo sapiens, UniProt P50613).
T3 construct: other: CDK7H; residual activity (%) at 10 μM CDK7H; compound at 10 μM
The experiment is described as above. As to conditions: CDK7H; for Ki: read-out: CDK inhibition, Ki (μM) CDK7H; for remaining activity at 10 µM: compound at 10 μM, read-out: residual activity (%) at 10 μM CDK7H. On the procedure:
as §1

For another experiment, the target named is CDK9/T1 (Homo sapiens, UniProt P50750). Briefly: ADP Glo Kinase assay CDK9/T1. To be noted: CDK9T1; read-out: CDK inhibition, Ki (μM) CDK9T1. On the procedure: as §1

These results are taken from patent US11111245B2, “Derivatives of N-cycloalkyl/heterocycloalkyl-4-(imidazo[1,2-a]pyridine)pyrimidin-2-amine as therapeutic agents” (Aucentra Therapeutics Pty Ltd, priority 2017, dated 2021).

A word on the Ki: it is a dissociation constant, usually derived from enzyme kinetics or from competition with a known ligand.

Chain of CDK9/T1 (P50750 whole entry): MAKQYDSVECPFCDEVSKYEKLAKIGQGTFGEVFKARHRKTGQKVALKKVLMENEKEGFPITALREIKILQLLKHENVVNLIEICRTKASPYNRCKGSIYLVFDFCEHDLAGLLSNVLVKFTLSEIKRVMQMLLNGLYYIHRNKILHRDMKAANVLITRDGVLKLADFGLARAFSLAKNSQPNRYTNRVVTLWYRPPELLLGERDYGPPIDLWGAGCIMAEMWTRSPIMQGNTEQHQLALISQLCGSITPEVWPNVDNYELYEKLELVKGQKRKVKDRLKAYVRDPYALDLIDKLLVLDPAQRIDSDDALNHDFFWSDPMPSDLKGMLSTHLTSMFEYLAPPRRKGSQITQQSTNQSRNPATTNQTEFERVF
Chain of CDK9/T1 (O60563 whole entry partner): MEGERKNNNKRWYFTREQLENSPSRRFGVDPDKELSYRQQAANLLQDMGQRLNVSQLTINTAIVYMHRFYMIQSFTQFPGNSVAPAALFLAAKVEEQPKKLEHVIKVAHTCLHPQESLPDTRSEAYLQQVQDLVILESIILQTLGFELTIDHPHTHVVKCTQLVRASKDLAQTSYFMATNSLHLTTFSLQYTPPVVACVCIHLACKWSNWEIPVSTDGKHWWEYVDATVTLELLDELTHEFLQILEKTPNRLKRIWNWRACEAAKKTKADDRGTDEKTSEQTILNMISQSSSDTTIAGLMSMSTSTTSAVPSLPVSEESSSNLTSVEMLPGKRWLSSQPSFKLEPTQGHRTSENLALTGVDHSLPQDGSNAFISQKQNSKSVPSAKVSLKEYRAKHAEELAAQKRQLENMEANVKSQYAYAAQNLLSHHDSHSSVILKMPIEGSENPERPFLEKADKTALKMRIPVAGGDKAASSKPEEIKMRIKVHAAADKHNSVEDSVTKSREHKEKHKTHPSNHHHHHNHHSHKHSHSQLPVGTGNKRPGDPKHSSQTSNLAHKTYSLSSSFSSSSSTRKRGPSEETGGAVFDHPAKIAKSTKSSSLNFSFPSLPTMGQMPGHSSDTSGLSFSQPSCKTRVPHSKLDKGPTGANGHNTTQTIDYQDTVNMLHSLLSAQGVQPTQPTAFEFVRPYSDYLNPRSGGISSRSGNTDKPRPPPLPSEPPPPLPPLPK
T1 sequence (P06493 whole entry): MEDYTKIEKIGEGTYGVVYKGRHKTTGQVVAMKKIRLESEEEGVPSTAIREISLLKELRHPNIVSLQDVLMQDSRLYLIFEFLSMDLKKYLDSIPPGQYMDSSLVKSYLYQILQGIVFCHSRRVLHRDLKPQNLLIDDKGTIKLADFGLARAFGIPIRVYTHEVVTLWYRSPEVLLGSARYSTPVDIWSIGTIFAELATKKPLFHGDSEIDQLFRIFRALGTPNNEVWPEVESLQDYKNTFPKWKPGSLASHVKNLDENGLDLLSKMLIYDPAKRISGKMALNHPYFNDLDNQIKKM
T3 sequence (P50613 whole entry): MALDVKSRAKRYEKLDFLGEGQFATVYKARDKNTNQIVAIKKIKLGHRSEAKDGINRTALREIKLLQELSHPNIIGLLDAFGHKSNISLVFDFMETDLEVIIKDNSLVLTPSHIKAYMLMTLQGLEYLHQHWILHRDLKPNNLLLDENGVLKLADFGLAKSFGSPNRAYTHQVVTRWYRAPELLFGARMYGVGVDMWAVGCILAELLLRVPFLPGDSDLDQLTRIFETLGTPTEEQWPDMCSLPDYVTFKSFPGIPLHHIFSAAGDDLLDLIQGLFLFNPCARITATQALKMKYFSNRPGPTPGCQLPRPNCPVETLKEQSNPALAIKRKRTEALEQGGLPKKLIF
Chain of CDK4/D1 (P11802 whole entry): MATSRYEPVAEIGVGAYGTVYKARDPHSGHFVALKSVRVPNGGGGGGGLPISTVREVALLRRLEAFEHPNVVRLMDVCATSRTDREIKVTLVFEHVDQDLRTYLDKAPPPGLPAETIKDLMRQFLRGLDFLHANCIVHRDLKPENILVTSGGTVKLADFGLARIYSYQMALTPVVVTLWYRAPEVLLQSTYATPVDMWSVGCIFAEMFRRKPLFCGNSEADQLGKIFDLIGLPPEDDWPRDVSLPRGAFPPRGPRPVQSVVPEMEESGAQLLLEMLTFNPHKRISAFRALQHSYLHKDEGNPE
Chain of CDK4/D1 (P24385 whole entry partner): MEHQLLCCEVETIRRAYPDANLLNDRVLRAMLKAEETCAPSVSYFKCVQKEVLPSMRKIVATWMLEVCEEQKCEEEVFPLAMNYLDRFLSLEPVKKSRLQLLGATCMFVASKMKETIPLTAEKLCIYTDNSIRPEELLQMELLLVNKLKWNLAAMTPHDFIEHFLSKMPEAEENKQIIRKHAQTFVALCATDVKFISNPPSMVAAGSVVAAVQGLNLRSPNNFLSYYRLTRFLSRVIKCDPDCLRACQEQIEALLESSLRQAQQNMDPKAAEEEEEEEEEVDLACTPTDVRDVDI

Consider `Cc1cnc(N[C@H]2CC[C@H](N)CC2)nc1-c1cnc2ccc(Nc3ccc(F)nc3)cn12` [Compound 123, (1r,4r)-N^1-(4-(6-((6-Fluoropyridin-3-yl)amino)imidazo [1,2-a]pyridin-3-yl)-5-methylpyrimidin-2-yl)cyclohexane-1,4-diamine], for which, on CDK4/D1, the remaining activity at 10 µM turned out to be 31%. The Ki came out at 1.53 µM on CDKs and other kinases [1]; 0.3 µM at CDKs and other kinases [2]; 0.89 µM on CDKs and other kinases [3]; 0.011 µM at CDK9/T1.

As for `COc1ccc(Nc2ccc3ncc(-c4nc(N[C@H]5CC[C@H](N)CC5)ncc4C)n3c2)cn1` [Compound 127, (1r,4r)-N^1-(4-(6-((6-Methoxypyridin-3-yl)amino)imidazo [1,2-a]pyridin-3-yl)-5-methylpyrimidin-2-yl)cyclohexane-1,4-diamine], the remaining activity at 10 µM is 32% on CDK4/D1; 34% on CDKs and other kinases [1]; 0% on CDKs and other kinases [2]; 39% on CDKs and other kinases [3]. Also, at CDK9/T1, the Ki came to 0.045 µM.

Take `COCCN[C@H]1CC[C@H](Nc2ncc(C)c(-c3cnc4ccc(-c5ccccc5)cn34)n2)CC1` [Compound 129, (1r,4r)-N^1-(2-Methoxyethyl)-N^4-(5-methyl-4-(6-phenylimidazo[1,2-a]pyridin-3-yl)pyrimidin-2-yl) cyclohexane-1,4-diamine]: the remaining activity at 10 µM at CDK4/D1 is 32%; on CDKs and other kinases [1], 42%; at CDKs and other kinases [2] it was 0%; at CDKs and other kinases [3], 18%. For the same compound, the Ki on CDK9/T1 is 0.12 µM.

Consider `CN[C@H]1CC[C@H](Nc2ncc(C)c(-c3cnc4ccc(-c5ccccc5)cn34)n2)CC1` [Compound 133, (1r,4r)-N^1-Methyl-N^4-(5-methyl-4-(6-phenylimidazo[1,2-a]pyridin-3-yl)pyrimidin-2-yl)cyclohexane-1,4-diamine], for which the remaining activity at 10 µM turned out to be 60% on CDK4/D1; 22% on CDKs and other kinases [1]; 40% at CDKs and other kinases [2]; 10% on CDKs and other kinases [3]. Moreover, at CDK9/T1, the Ki was 0.14 µM.

`Cc1cnc(N[C@H]2CC[C@H](N)CC2)nc1-c1cnc2ccc(Nc3ccncc3)cn12` [Compound 134, (1r,4r)-N^1-(5-Methyl-4-(6-(pyridin-4-ylamino)imidazo [1,2-a]pyridin-3-yl)pyrimidin-2-yl)cyclohexane-1,4-diamine]: the remaining activity at 10 µM on CDK4/D1 was determined as 11%; on CDKs and other kinases [1], 43%; on CDKs and other kinases [2], 22%; at CDKs and other kinases [3], 28%. In addition, the Ki at CDK9/T1 amounted to 0.12 µM.

`Cc1cnc(N[C@H]2CC[C@H](N3CCC3)CC2)nc1-c1cnc2ccc(Nc3cncc(F)c3)cn12` [Compound 139, 3-(2-(((1r,4r)-4-(Azetidin-1-yl)cyclohexyl)amino)-5-methylpyrimidin-4-yl)-N-(5-fluoropyridin-3-yl)imidazo [1,2-a]pyridin-6-amine]: the remaining activity at 10 µM amounted to 14% on CDK4/D1; 31% on CDKs and other kinases [1]; 4% at CDKs and other kinases [2]; 15% at CDKs and other kinases [3]. For the same compound, the Ki at CDK9/T1 came to 0.044 µM.

In the case of `Cc1cnc(N[C@H]2CC[C@H](N3CCC3)CC2)nc1-c1cnc2ccc(Nc3cncnc3)cn12` [Compound 141, 3-(2-(((1r,4r)-4-(Azetidin-1-yl)cyclohexyl)amino)-5-methylpyrimidin-4-yl)-N-(pyrimidin-5-yl)imidazo [1,2-a]pyridin-6-amine], the remaining activity at 10 µM on CDK4/D1 turned out to be 15%; on CDKs and other kinases [3], 30%. Also, the Ki worked out at 0.532 µM at CDKs and other kinases [1]; 0.064 µM at CDKs and other kinases [2]; 0.011 µM at CDK9/T1.

On to `Fc1cnc(NC2CCN(CC3CC3)CC2)nc1-c1cnc2ccc(-c3ccccc3)cn12` [Compound 145, N-(1-(Cyclopropylmethyl)piperidin-4-yl)-5-fluoro-4-(6-phenylimidazo[1,2-a]pyridin-3-yl)pyrimidin-2-amine], for which the remaining activity at 10 µM turned out to be 41% on CDK4/D1; 22% at CDKs and other kinases [2]. The Ki on CDKs and other kinases [1] amounted to 0.222 µM; on CDKs and other kinases [3], 0.199 µM; at CDK9/T1, 0.402 µM.

`CCS(=O)(=O)N1CCC(Nc2ncc(F)c(-c3cnc4ccc(-c5ccccc5)cn34)n2)CC1` [Compound 163, N-(1-(Ethylsulfonyl)piperidin-4-yl)-5-fluoro-4-(6-phenylimidazo[1,2-a]pyridin-3-yl)pyrimidin-2-amine]: the remaining activity at 10 µM is 61% on CDK4/D1; 0% at CDKs and other kinases [2]; 5% at CDKs and other kinases [3]. Besides, on CDK9/T1, the Ki is 4.57 µM.

Take `O[C@H]1CC[C@H](Nc2ncc(Cl)c(-c3cnc4ccc(-c5ccc(F)cc5)cn34)n2)CC1` [Compound 165, (1r,4r)-4-((5-Chloro-4-(6-(4-fluorophenyl)imidazo[1,2-a]pyridin-3-yl)pyrimidin-2-yl)amino)cyclohexan-1-ol]: the remaining activity at 10 µM on CDK4/D1 was 61%; on CDKs and other kinases [2], 51%; on CDKs and other kinases [3], 24%. Also, the Ki at CDK9/T1 was found to be 0.93 µM.

As to `O[C@H]1CC[C@H](Nc2ncc(Cl)c(-c3cnc4ccc(-c5cccnc5)cn34)n2)CC1` [Compound 166, (1r,4r)-4-((5-Chloro-4-(6-(pyridin-3-yl)imidazo[1,2-a]pyridin-3-yl)pyrimidin-2-yl)amino)cyclohexan-1-ol], the remaining activity at 10 µM came to 54% on CDK4/D1; 8% on CDKs and other kinases [2]; 33% on CDKs and other kinases [3]. Also, the Ki on CDK9/T1 stood at 1.28 µM.

On to `COc1ccc(-c2ccc3ncc(-c4nc(N[C@H]5CC[C@H](O)CC5)ncc4Cl)n3c2)cn1` [Compound 167, (1r,4r)-4-((5-Chloro-4-(6-(6-methoxypyridin-3-yl)imidazo[1,2-a]pyridin-3-yl)pyrimidin-2-yl)amino) cyclohexan-1-ol], for which the remaining activity at 10 µM at CDK4/D1 is 66%; at CDKs and other kinases [2], 4%; at CDKs and other kinases [3], 49%. In addition, the Ki on CDK9/T1 is 0.49 µM.

As for `Cc1cnc(NC2CCC(N3CCNC(=O)C3)CC2)nc1-c1cnc2ccc(Nc3cncnc3)cn12` (stereo not shown) [Compound 168, 4-(4-((5-Methyl-4-(6-(pyrimidin-5-ylamino)imidazo [1,2-a]pyridin-3-yl)pyrimidin-2-yl)amino)cyclohexyl) piperazin-2-one], the remaining activity at 10 µM turned out to be 22% at CDK4/D1; 11% at CDKs and other kinases [2]; 55% at CDKs and other kinases [3]. For the same compound, the Ki on CDK9/T1 was found to be 0.181 µM.

With `CNC(=O)N[C@H]1CC[C@H](Nc2ncc(C)c(-c3cnc4ccc(-c5ccccc5)cn34)n2)CC1` [Compound 169, 1-Methyl-3-((1r,4r)-4-((5-methyl-4-(6-phenylimidazo [1,2-a]pyridin-3-yl)pyrimidin-2-yl)amino)cyclohexyl) urea], the remaining activity at 10 µM on CDK4/D1 was 81%; on CDKs and other kinases [2] it was 31%; at CDKs and other kinases [3], 35%. Besides, at CDK9/T1, the Ki turned out to be 1.88 µM.

As for `Fc1cnc(NC2CCNCC2)nc1-c1cnc2cc(-c3ccccc3)ccn12` [Compound 170, 5-Fluoro-4-(7-phenylimidazo[1,2-a]pyridin-3-yl)-N-(piperidin-4-yl)pyrimidin-2-amine], the remaining activity at 10 µM at CDK4/D1 is 5%; at CDKs and other kinases [2], 7%; on CDKs and other kinases [3] it was 18%. At CDK9/T1, the inhibitory constant (Ki) is over 5 µM.

Regarding `CS(=O)(=O)N1CCC(Nc2ncc(F)c(-c3cnc4cc(-c5ccccc5)ccn34)n2)CC1` [Compound 171, 5-Fluoro-N-(1-(methylsulfonyl)piperidin-4-yl)-4-(7-phenylimidazo[1,2-a]pyridin-3-yl)pyrimidin-2-amine], the remaining activity at 10 µM on CDK4/D1 was 47%; on CDKs and other kinases [2] it was 35%; at CDKs and other kinases [3], 65%. The Ki at CDK9/T1 was over 5 µM.

As to `CNC(=O)N[C@H]1CC[C@H](Nc2ncc(C)c(-c3cnc4ccc(Nc5cncnc5)cn34)n2)CC1` [Compound 172, 1-Methyl-3-((1r,4r)-4-((5-methyl-4-(6-(pyrimidin-5-ylamino)imidazo[1,2-a]pyridin-3-yl)pyrimidin-2-yl)amino)cyclohexyl)urea], the remaining activity at 10 µM at CDK4/D1 was found to be 6%; on CDKs and other kinases [2], 2%; on CDKs and other kinases [3] it was 21%. Also, the Ki at CDK9/T1 was 0.005 µM.
